# Results reported in ChEMBL document CHEMBL3351253, “Sterol fatty acid esters from the mushroom Hericium erinaceum and their PPAR transactivational effects” (J Nat Prod, 2014).
# How the values were obtained:
# Type in all cases: cell-based
# HepG2 = assay: Cytotoxicity against human HepG2 cells assessed as CCK8 after 24 hrs; conditions: hepg2, 24 h
# [1] = molecular target: T1, Peroxisome proliferator-activated receptor (Homo sapiens, UniProt P37231+Q07869+Q03181); assay: (§1) Transactivation of PPAR transfected in human HepG2 cells after 20 hrs by PPAR-luciferase assay
# T1 sequence (P37231 whole entry): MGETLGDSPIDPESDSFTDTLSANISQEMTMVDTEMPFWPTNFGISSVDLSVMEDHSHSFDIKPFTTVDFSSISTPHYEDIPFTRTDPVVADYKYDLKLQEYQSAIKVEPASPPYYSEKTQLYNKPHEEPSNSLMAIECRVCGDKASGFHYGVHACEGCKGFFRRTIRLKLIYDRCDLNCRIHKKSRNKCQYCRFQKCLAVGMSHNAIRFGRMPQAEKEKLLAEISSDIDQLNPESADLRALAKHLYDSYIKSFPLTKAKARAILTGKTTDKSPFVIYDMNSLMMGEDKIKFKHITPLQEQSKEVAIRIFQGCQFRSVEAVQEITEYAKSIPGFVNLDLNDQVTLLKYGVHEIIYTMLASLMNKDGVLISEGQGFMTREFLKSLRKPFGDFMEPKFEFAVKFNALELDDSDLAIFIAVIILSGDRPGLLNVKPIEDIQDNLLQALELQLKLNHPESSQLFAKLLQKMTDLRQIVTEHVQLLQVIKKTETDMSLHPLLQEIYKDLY
# T1 sequence (Q07869 whole entry): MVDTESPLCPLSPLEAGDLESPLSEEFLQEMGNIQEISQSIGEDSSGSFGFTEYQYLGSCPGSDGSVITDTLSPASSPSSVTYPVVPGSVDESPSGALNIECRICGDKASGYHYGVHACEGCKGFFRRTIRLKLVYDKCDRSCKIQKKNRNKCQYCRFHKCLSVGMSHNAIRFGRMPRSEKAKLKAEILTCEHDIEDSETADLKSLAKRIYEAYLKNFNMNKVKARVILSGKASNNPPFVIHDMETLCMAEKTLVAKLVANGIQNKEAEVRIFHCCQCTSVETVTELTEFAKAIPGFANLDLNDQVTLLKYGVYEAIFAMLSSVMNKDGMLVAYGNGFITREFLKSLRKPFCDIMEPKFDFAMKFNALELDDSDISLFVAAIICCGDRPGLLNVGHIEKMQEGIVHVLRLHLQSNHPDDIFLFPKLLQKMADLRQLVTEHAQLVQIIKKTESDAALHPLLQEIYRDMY
# T1 sequence (Q03181 whole entry): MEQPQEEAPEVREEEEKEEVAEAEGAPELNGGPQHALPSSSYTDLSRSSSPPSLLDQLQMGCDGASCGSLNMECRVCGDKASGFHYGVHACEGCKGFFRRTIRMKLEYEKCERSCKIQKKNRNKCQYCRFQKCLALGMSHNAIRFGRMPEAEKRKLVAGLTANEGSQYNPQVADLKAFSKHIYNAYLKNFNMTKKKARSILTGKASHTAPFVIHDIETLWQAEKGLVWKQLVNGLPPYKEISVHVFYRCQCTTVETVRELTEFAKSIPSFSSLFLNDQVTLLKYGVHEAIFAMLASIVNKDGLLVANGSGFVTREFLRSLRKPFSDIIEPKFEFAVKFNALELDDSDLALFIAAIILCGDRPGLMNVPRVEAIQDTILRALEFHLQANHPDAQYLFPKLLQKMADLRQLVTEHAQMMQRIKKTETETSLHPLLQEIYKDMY
# [2] = molecular target: Peroxisome proliferator-activated receptor (Homo sapiens) (UniProt P37231+Q07869+Q03181); assay: as §1
# [3] = molecular target: T2, Peroxisome proliferator-activated receptor alpha (Homo sapiens) (UniProt Q07869); assay: Transactivation of human Gal4-PPARalpha LBD transfected in human HepG2 cells assessed as stimulation at 5 uM after 20 hrs by luciferase reporter gene assay relative to vehicle-treated control
# T2 sequence (whole entry): T1 sequence (Q07869 whole entry)
# [4] = molecular target: T2, Peroxisome proliferator-activated receptor alpha (Homo sapiens); assay: Transactivation of human Gal4-PPARalpha LBD transfected in human HepG2 cells assessed as stimulation at 10 uM after 20 hrs by luciferase reporter gene assay relative to vehicle-treated control
# [5] = molecular target: T2, Peroxisome proliferator-activated receptor alpha (Homo sapiens); assay: Transactivation of human Gal4-PPARalpha LBD transfected in human HepG2 cells assessed as stimulation at 20 uM after 20 hrs by luciferase reporter gene assay relative to vehicle-treated control
# [6] = molecular target: T3, Peroxisome proliferator-activated receptor gamma (Homo sapiens) (UniProt P37231); assay: Transactivation of human Gal4-PPARgamma LBD transfected in human HepG2 cells assessed as stimulation at 5 uM after 20 hrs by luciferase reporter gene assay relative to vehicle-treated control
# T3 sequence (whole entry): T1 sequence (P37231 whole entry)
# [7] = molecular target: T3, Peroxisome proliferator-activated receptor gamma (Homo sapiens); assay: Transactivation of human Gal4-PPARgamma LBD transfected in human HepG2 cells assessed as stimulation at 10 uM after 20 hrs by luciferase reporter gene assay relative to vehicle-treated control
# [8] = molecular target: T3, Peroxisome proliferator-activated receptor gamma (Homo sapiens); assay: Transactivation of human Gal4-PPARgamma LBD transfected in human HepG2 cells assessed as stimulation at 20 uM after 20 hrs by luciferase reporter gene assay relative to vehicle-treated control
# [9] = molecular target: T4, Peroxisome proliferator-activated receptor delta (Homo sapiens) (UniProt Q03181); assay: Transactivation of human Gal4-PPARbeta/delta LBD transfected in human HepG2 cells assessed as stimulation at 5 uM after 20 hrs by luciferase reporter gene assay relative to vehicle-treated control
# T4 sequence (whole entry): T1 sequence (Q03181 whole entry)
# [10] = molecular target: T4, Peroxisome proliferator-activated receptor delta (Homo sapiens); assay: Transactivation of human Gal4-PPARbeta/delta LBD transfected in human HepG2 cells assessed as stimulation at 10 uM after 20 hrs by luciferase reporter gene assay relative to vehicle-treated control
# [11] = molecular target: T4, Peroxisome proliferator-activated receptor delta (Homo sapiens); assay: Transactivation of human Gal4-PPARbeta/delta LBD transfected in human HepG2 cells assessed as stimulation at 20 uM after 20 hrs by luciferase reporter gene assay relative to vehicle-treated control
# [12] = molecular target: T4, Peroxisome proliferator-activated receptor delta (Homo sapiens); assay: Transactivation of human Gal4-PPARbeta/delta LBD transfected in human HepG2 cells assessed as stimulation at 1 uM after 20 hrs by luciferase reporter gene assay relative to vehicle-treated control
# [13] = molecular target: T2, Peroxisome proliferator-activated receptor alpha (Homo sapiens); assay: Transactivation of human Gal4-PPARalpha LBD transfected in human HepG2 cells assessed as stimulation at 1 uM after 20 hrs by luciferase reporter gene assay relative to vehicle-treated control
Compound,Activity (HepG2),EC50 [1] [µM],further results
CC/C=C\C/C=C\C/C=C\CCCCCCCC(=O)O[C@@H]1C=C2[C@@H]3CC[C@H]([C@H](C)/C=C/[C@H](C)C(C)C)[C@@]3(C)CC[C@@H]2[C@@]2(C)CC[C@H](O)C[C@]12O,Non-toxic,> 50,
CCCCCCCC/C=C\CCCCCCCC(=O)O[C@H]1C2=C3CC[C@H]([C@H](C)/C=C/[C@H](C)C(C)C)[C@@]3(C)CC[C@@H]2[C@@]2(C)CC[C@H](O)C[C@@]23O[C@@H]13,Non-toxic,8.2,Activity [2]: Dose-dependent effect; Activity [3]: 289%; Activity [4]: 297%; Activity [5]: 314%; Activity [6]: 114%; Activity [7]: 125%; Activity [8]: 133%; Activity [9]: 100%; Activity [10]: 102%; Activity [11]: 112%
CCCCC/C=C\C/C=C\CCCCCCCC(=O)O[C@H]1CC[C@]2(C)[C@@]3(O)CC[C@]4(C)[C@@H]([C@H](C)/C=C/[C@H](C)C(C)C)CC[C@H]4C3=C[C@H](O)[C@@]2(O)C1,Non-toxic,22.3,
CCCCCCCCCCCCCCCCCC(=O)O[C@H]1CC[C@@]2(C)C(=CC=C3[C@@H]4CC[C@H]([C@H](C)/C=C/[C@H](C)C(C)C)[C@@]4(C)CC[C@@H]32)C1,Non-toxic,> 50,
CCCCCCCC/C=C\CCCCCCCC(=O)O[C@H]1C=C2[C@@H]3CC[C@H]([C@H](C)/C=C/[C@H](C)C(C)C)[C@@]3(C)CC[C@@H]2[C@@]2(C)CC[C@H](O)C[C@]12O,Non-toxic,> 50,
CCCc1c(OCCCOc2ccc(OCC(=O)O)cc2)ccc(C(C)=O)c1O,,,Activity [12]: 288%
CCCCCCCCCCCCCCCC(=O)O[C@H]1CC[C@@]2(C)C(=CC=C3[C@@H]4CC[C@H]([C@H](C)/C=C/[C@H](C)C(C)C)[C@@]4(C)CC[C@@H]32)C1,Non-toxic,> 50,
CCCCC/C=C\C/C=C\CCCCCCCC(=O)O[C@H]1C2=C3CC[C@H]([C@H](C)/C=C/[C@H](C)C(C)C)[C@@]3(C)CC[C@@H]2[C@@]2(C)CC[C@H](O)C[C@@]23O[C@@H]13,Non-toxic,6.4,Activity [2]: Dose-dependent effect; Activity [3]: 309%; Activity [4]: 346%; Activity [5]: 386%; Activity [6]: 129%; Activity [7]: 156%; Activity [8]: 162%; Activity [9]: 99.6%; Activity [10]: 111%; Activity [11]: 121%
CCCCC/C=C\C/C=C\CCCCCCCC(=O)O[C@H]1C=C2[C@@H]3CC[C@H]([C@H](C)/C=C/[C@H](C)C(C)C)[C@@]3(C)CC[C@@H]2[C@@]2(C)CC[C@H](O)C[C@]12O,Non-toxic,> 50,
CCCCCCCCCCCCCCCC(=O)O[C@H]1C=C2[C@@H]3CC[C@H]([C@H](C)/C=C/[C@H](C)C(C)C)[C@@]3(C)CC[C@@H]2[C@@]2(C)CC[C@H](O)C[C@]12O,Non-toxic,> 50,
CCCCCCCCCCCCCCCCCC(=O)O[C@H]1CC[C@]2(C)[C@H]3CC[C@]4(C)[C@@H]([C@H](C)/C=C/[C@H](C)C(C)C)CC[C@H]4C3=C[C@H](O)[C@@]2(O)C1,Non-toxic,20.6,
CC(C)(Oc1ccc(C2CC2(Cl)Cl)cc1)C(=O)O (centres undefined),,,Activity [13]: 311%
CCCCC/C=C\C/C=C\CCCCCCCC(=O)O[C@H]1CC[C@]2(C)[C@H]3CC[C@]4(C)[C@@H]([C@H](C)/C=C/[C@H](C)C(C)C)CC[C@H]4C3=C[C@H](O)[C@@]2(O)C1,Non-toxic,18.7,
